Publication PMC2643345 (Molecular cancer therapeutics, 2008)

Target: T1, wild-type AR (Homo sapiens, UniProt P10275)
T1 sequence (P10275 1-920): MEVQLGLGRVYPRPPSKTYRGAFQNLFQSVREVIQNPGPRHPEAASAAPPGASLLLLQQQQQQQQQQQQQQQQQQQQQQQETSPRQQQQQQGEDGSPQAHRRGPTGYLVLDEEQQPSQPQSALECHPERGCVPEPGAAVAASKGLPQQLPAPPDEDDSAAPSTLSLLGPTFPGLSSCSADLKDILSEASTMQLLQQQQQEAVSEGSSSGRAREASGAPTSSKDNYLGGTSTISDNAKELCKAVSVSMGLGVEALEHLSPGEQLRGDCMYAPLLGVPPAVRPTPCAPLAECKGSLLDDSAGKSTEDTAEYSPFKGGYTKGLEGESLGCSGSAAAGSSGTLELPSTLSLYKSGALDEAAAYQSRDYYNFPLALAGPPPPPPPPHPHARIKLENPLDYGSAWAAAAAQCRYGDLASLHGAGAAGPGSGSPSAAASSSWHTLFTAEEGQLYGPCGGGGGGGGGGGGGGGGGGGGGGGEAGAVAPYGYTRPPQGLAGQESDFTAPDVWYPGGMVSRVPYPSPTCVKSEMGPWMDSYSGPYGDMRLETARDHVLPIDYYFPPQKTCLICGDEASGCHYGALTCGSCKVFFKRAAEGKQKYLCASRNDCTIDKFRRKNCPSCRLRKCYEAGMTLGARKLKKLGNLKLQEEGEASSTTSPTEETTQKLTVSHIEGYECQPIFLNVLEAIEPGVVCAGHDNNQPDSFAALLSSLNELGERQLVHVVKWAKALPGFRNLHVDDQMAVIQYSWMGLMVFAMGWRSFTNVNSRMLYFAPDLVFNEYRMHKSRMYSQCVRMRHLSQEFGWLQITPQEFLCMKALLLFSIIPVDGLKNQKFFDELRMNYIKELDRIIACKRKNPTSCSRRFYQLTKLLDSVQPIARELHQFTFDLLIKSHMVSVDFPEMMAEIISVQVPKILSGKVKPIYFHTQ
Assay: Competitive inhibition of [3H]R1881 binding, wild-type AR

C[C@]12CC[C@H](O)CC1=CC[C@@H]1[C@@H]2CC[C@]2(C)C(c3cccnc3)=CC[C@@H]12 [Abiraterone]
binding to the AR (competitive binding, up to 10 μM): did not bind
inhibition at 10 µM (read-out: wild-type (LAPC4/PC3-AR), inhibition of [3H]R1881 binding as symbol): < 20%
